ChEMBL document CHEMBL5370693, “Kinases Controlling Stability of the Oncogenic MYCN Protein” (ACS Med Chem Lett, 2023)
Blank lines part the entries; values can stand above or below the compound they belong to. Activity calls are given as the source filed them. The calls are words filed in the database; no cut-off is given here.

Assays:
Assay type in all cases: cell-based
[1] = molecular target: T1, N-myc proto-oncogene protein (Homo sapiens) (UniProt P04198); experiment: Induction of MYCN degradation in human SKNBE2 cells at 5 to 50 uM incubated for 24 hrs by Western blot analysis; details: dose 5-50 µM
T1 sequence (whole entry): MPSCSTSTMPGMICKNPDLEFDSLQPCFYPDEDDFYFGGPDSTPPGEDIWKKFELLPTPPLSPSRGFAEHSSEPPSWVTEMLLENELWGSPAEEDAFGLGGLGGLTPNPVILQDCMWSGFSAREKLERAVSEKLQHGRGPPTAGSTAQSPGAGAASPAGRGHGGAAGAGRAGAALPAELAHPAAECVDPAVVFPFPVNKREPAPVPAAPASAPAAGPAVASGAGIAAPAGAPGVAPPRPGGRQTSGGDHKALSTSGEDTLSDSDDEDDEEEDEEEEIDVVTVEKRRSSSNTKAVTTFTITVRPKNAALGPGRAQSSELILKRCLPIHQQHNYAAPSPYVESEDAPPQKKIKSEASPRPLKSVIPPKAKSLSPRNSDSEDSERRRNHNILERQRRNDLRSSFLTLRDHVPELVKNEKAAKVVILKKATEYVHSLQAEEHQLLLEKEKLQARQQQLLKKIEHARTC

[2] = molecular target: T1, N-myc proto-oncogene protein (Homo sapiens); experiment: Induction of MYCN degradation in human SKNBE2 cells at 5 to 15 uM incubated for 24 hrs by Western blot analysis; details: dose 5-15 µM
SKNBE2 [3] = experiment: Inhibition of PI3K in human SKNBE2 cells assessed as depletion of MYCN protein at 5 uM measured after 24 hrs in presence of NG25 by Western blot analysis
SKNBE2 [4] = experiment: Inhibition of PI3K in human SKNBE2 cells assessed as degradation of MYCN protein at 5 to 10 uM incubated for 24 hrs by Western blotting analysis; details: dose 5-10 µM
SKNBE2 [5] = experiment: Inhibition of PI3K in human SKNBE2 cells assessed as reduction in MYCN/GADPH protein ratio at 5 uM incubated for 24 hrs in presence of Cx945 by Western blotting analysis
SKNBE2 [6] = experiment: Inhibition of PI3K in human SKNBE2 cells assessed as reduction in MYCN/GADPH protein ratio at 5 uM incubated for 24 hrs in presence of […]/CHIR-124 by Western blotting analysis
SKNBE2 [7] = experiment: Inhibition of PI3K in human SKNBE2 cells assessed as depletion of MYCN protein at 5 uM measured after 24 hrs in presence of Cx4945 and NG25 by Western blot analysis
SKNBE2 [8] = experiment: Inhibition of PI3K in human SKNBE2 cells assessed as depletion of MYCN protein at 5 uM measured after 24 hrs in presence of NG25 and CHIR-124 by Western blot analysis
SKNBE2 [9] = experiment: Inhibition of PI3K in human SKNBE2 cells assessed as depletion of MYCN protein at 5 uM measured after 24 hrs in presence of Cx4945 and CHIR-124 by Western blot analysis
SKNBE2 [10] = experiment: Inhibition of PI3K in human SKNBE2 cells assessed as depletion of MYCN protein at 5 uM measured after 24 hrs in presence of CHIR-124 by Western blot analysis
SKNBE2 [11] = experiment: Inhibition of PI3K in human SKNBE2 cells assessed as depletion of MYCN protein at 5 uM measured after 24 hrs in presence of Cx4945 by Western blot analysis
SKNBE2 [12] = experiment: Inhibition of PI3K in human SKNBE2 cells assessed as depletion of MYCN protein at 5 uM measured after 24 hrs in presence of NG25, Cx4945 and CHIR-124 by Western blot analysis
SKNBE2 [13] = experiment: Inhibition of PI3K in human SKNBE2 cells assessed as reduction in MYCN/GADPH protein ratio at 5 uM incubated for 24 hrs in presence of CHIR-124 by Western blotting analysis
[14] = molecular target: Serine/threonine-protein kinase 38-like (Homo sapiens) (UniProt Q9Y2H1); experiment: Inhibition of NDR2 in human SKNBE2 cells assessed as depletion of MYCN protein at 10 uM measured after 24 hrs in presence of BEZ235 by Western blot analysis
[15] = molecular target: Serine/threonine-protein kinase 38-like (Homo sapiens) (UniProt Q9Y2H1); experiment: Inhibition of NDR2 in human SKNBE2 cells assessed as depletion of MYCN protein at 10 uM measured after 24 hrs in presence of BEZ235 and Cx4945 by Western blot analysis
[16] = molecular target: Serine/threonine-protein kinase 38-like (Homo sapiens) (UniProt Q9Y2H1); experiment: Inhibition of NDR2 in human SKNBE2 cells assessed as depletion of MYCN protein at 10 uM measured after 24 hrs in presence of CHIR-124 and BEZ235 by Western blot analysis
[17] = molecular target: Serine/threonine-protein kinase 38-like (Homo sapiens) (UniProt Q9Y2H1); experiment: Inhibition of NDR2 in human SKNBE2 cells assessed as depletion of MYCN protein at 10 uM measured after 24 hrs in presence of Cx4945 by Western blot analysis
[18] = molecular target: Serine/threonine-protein kinase 38-like (Homo sapiens) (UniProt Q9Y2H1); experiment: Inhibition of NDR2 in human SKNBE2 cells assessed as depletion of MYCN protein at 10 uM measured after 24 hrs in presence of CHIR-124 by Western blot analysis
[19] = molecular target: Serine/threonine-protein kinase 38-like (Homo sapiens) (UniProt Q9Y2H1); experiment: Inhibition of NDR2 in human SKNBE2 cells assessed as depletion of MYCN protein at 10 uM measured after 24 hrs in presence of CHIR-124, BEZ235 and Cx4945 by Western blot analysis
[20] = molecular target: Serine/threonine-protein kinase 38-like (Homo sapiens) (UniProt Q9Y2H1); experiment: Inhibition of NDR2 in human SKNBE2 cells assessed as decreased accumulation of MYCN protein measured after 24 hrs by Western blot analysis
[21] = molecular target: Serine/threonine-protein kinase 38-like (Homo sapiens) (UniProt Q9Y2H1); experiment: Binding affinity to STK38L in human SKNBE2 cells assessed as effect on thermal stability at 49 degC incubated for 3 hrs by CETSA assay
[22] = molecular target: T1, N-myc proto-oncogene protein (Homo sapiens); experiment: Induction of MYCN degradation in human SKNBE2 cells incubated for 24 hrs by Western blot analysis; details: dose 1-50 µM
SKNBE2 [23] = experiment: Inhibition of PI3K in human SKNBE2 cells assessed as degradation of MYCN protein at 10 to 15 uM incubated for 24 hrs by Western blotting analysis; details: dose 10-15 µM
[24] = molecular target: Serine/threonine-protein kinase 38-like (Homo sapiens) (UniProt Q9Y2H1); experiment: Inhibition of NDR2 in human SKNBE2 cells assessed as depletion of MYCN protein at 10 uM measured after 24 hrs in presence of CHIR-124 and Cx4945 by Western blot analysis
SKNBE2 [25] = experiment: Inhibition of CK2 in human SKNBE2 cells assessed as reduction in MYCN/GADPH protein ratio at 20 uM incubated for 24 hrs in presence of CHIR-124/BEZ235 by Western blotting analysis
[26] = molecular target: T1, N-myc proto-oncogene protein (Homo sapiens); experiment: Induction of MYCN degradation in human SKNBE2 cells at 5 uM incubated for 24 hrs by Western blot analysis
[27] = molecular target: T1, N-myc proto-oncogene protein (Homo sapiens); experiment: Induction of MYCN degradation in human SKNBE2 cells at 45 uM incubated for 24 hrs by Western blot analysis
[28] = molecular target: T2, Serine/threonine-protein kinase Chk1 (Homo sapiens) (UniProt O14757); experiment: Inhibition of CHK1 in human SKNBE2 cells assessed as depletion of MYCN protein at >1 uM incubated for 24 hrs by Western blotting analysis
T2 sequence (whole entry): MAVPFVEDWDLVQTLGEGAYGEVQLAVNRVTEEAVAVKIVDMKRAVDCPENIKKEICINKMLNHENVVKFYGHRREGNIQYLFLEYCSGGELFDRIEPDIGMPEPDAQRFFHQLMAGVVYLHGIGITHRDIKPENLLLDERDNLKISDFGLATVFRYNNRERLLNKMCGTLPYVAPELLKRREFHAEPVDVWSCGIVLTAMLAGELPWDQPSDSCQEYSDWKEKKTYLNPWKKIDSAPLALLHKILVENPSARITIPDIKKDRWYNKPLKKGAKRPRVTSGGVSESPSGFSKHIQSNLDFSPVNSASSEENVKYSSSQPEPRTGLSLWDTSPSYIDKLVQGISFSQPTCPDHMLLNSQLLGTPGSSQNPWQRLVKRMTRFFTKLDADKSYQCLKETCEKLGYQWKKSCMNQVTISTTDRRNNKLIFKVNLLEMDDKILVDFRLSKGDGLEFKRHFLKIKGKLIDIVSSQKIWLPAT

Serine/threonine-protein kinase 38-like (Homo sapiens), sequence (Q9Y2H1 2-464 limits assumed): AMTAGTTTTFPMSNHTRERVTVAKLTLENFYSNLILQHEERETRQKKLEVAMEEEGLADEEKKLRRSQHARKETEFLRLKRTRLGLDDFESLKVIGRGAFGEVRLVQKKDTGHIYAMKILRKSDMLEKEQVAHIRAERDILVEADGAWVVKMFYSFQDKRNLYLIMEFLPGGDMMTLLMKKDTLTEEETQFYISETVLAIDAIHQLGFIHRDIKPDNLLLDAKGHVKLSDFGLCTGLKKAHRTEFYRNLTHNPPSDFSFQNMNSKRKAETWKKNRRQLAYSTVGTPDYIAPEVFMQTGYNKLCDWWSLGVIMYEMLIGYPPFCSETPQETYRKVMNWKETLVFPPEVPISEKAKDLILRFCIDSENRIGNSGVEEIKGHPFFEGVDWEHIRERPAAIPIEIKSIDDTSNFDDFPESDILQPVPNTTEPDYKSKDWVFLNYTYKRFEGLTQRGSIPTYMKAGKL

SMILES: Cn1c(=O)n(-c2ccc(C(C)(C)C#N)cc2)c2c3cc(-c4cnc5ccccc5c4)ccc3ncc21
inhibition (SKNBE2 [3]): Active
inhibition (SKNBE2 [4]): inactive
inhibition (SKNBE2 [5]): Active
inhibition (SKNBE2 [6]): Active
inhibition (SKNBE2 [7]): Active
inhibition (SKNBE2 [8]): Active
inhibition (SKNBE2 [9]): Active
inhibition (SKNBE2 [10]): Active
inhibition (SKNBE2 [11]): Active
inhibition (SKNBE2 [12]): Active
inhibition (SKNBE2 [13]): Active

SMILES: CCN1CCN(Cc2ccc(NC(=O)c3ccc(C)c(Oc4ccnc5[nH]ccc45)c3)cc2C(F)(F)F)CC1
inhibition [14]: Active
inhibition [15]: Active
inhibition [16]: Active
inhibition [17]: inactive
inhibition [18]: Active
inhibition [19]: Active
inhibition [20]: Dose-Dependent Effect
Activity [21]: inactive

SMILES: COc1cc(C)c(Sc2cnc(NC(=O)c3ccc(CNC(C)C(C)(C)C)cc3)s2)cc1C(=O)N1CCN(C(C)=O)CC1 (stereo not given)
Activity [22]: Dose-Dependent Effect

SMILES: CS(=O)(=O)N1CCN(Cc2cc3nc(-c4cccc5[nH]ncc45)nc(N4CCOCC4)c3s2)CC1
inhibition (SKNBE2 [23]): inactive

SMILES: O=C(O)c1ccc2c(c1)nc(Nc1cccc(Cl)c1)c1ccncc12
inhibition [24]: Active
inhibition (SKNBE2 [25]): Active

SMILES: CC(C)CCOc1ccc2c(c1)OCC(c1ccc(O)c(O)c1)C2 (stereo not given)
Activity [26]: Active

SMILES: CCN1CCN(c2ccc(Nc3cc(N(C)C(=O)Nc4c(Cl)c(OC)cc(OC)c4Cl)ncn3)cc2)CC1
inhibition [20]: Dose-Dependent Effect

SMILES: COc1cc(N2CCC(N3CCN(C)CC3)CC2)ccc1Nc1ncc(Cl)c(Nc2ccccc2S(=O)(=O)C(C)C)n1
inhibition [20]: Dose-Dependent Effect

The remaining lines, values ahead:

Activity [1]: Active
SMILES: CCCOc1ccc2c(=O)c(-c3ccc(O)c(O)c3)coc2c1

Activity [2]: Active
SMILES: CCCCCCOc1ccc2c(=O)c(-c3ccc(O)c(O)c3)coc2c1

Activity [27]: Active
SMILES: CC(C)CCOc1ccc2occ(-c3ccc(O)c(O)c3)c(=O)c2c1

inhibition [28]: Active
SMILES: Cn1cc(-c2[nH]c3cc(NC(=O)[C@H](N)C4CCCCC4)cc4c3c2C=NNC4=O)cn1
